Values after ≈ are worked out from the molar mass of the structure shown.
Details: for aqueous solubility: pH 6.8

MDR1-MDCK efflux ratio | intrinsic clearance, human liver microsomes | intrinsic clearance, rat liver microsomes | fraction unbound, human plasma | fraction unbound, rat plasma | aqueous solubility | SMILES
 | 8.72 mL/min/kg | 112 mL/min/kg | 0.0268 | 0.0267 |  | CCn1cc(C(=O)O)c(=O)c2c(N)c(F)c(NC3CCCCC3)cc21
0.822 | 63 mL/min/kg | 669 mL/min/kg |  |  | 26.7 µg/mL (≈ 70.1 µM) | Cn1ccc(C(=O)N2CCCC(c3cccc(-c4cccc(Cl)c4)n3)C2)n1 (stereo unspecified)
0.486 |  |  |  |  | 0.14 µg/mL (≈ 0.417 µM) | COc1cccc(-c2nnn(Cc3cc(F)cc4cccnc34)n2)c1
 | 88.8 mL/min/kg | 1710 mL/min/kg |  |  | 32.2 µg/mL (≈ 104 µM) | Cc1nc(C#N)c(C#N)n1Cc1csc(-c2cccs2)n1
 |  |  |  |  | 3.07 µg/mL (≈ 10.8 µM) | CCCc1n[nH]c2c1C(C1CC=CCC1)C(C#N)=C(N)O2 (stereo unspecified)
0.246 | 85.5 mL/min/kg | 80.9 mL/min/kg |  |  | 33 µg/mL (≈ 131 µM) | COc1ccccc1C(=O)Nc1cccc(C#N)c1
0.579 | 12.4 mL/min/kg | 1020 mL/min/kg |  |  |  | CC(=O)N1CCC2(C=Cc3cc(C)c(C)cc3O2)CC1
 | ≤ 4.74 mL/min/kg | ≤ 10.7 mL/min/kg |  |  |  | CC(C)NC(=O)CN(C#N)c1ccccc1
0.562 | 44.6 mL/min/kg | 268 mL/min/kg |  |  | 44.8 µg/mL (≈ 135 µM) | CC(C)c1csc(NC(=O)C2CCN(c3ncccn3)CC2)n1
2.77 | 7.16 mL/min/kg | 315 mL/min/kg |  |  |  | CN1CCC[C@H]1C(=O)N[C@@H](CO)Cc1ccccc1
2.33 | 187 mL/min/kg | 1590 mL/min/kg |  |  | 10.1 µg/mL (≈ 30.5 µM) | Cn1c(CNC(=O)Cc2cccc3ccccc23)nc2ccccc21
0.646 | 293 mL/min/kg | 1260 mL/min/kg |  |  |  | CCOC(=O)c1cccnc1SCc1cccnc1
29.1 | 20.8 mL/min/kg | 90.9 mL/min/kg |  |  |  | CC(=O)NCC(=O)N1[C@@H]2CC[C@H]1c1ccc(Nc3ncc(C(F)(F)F)c(NC4CCC4)n3)cc12
0.492 |  |  |  |  | 0.22 µg/mL (≈ 0.711 µM) | CN(C(=O)c1cc2ccc(C(C)(C)C)cc2[nH]1)C1(C#N)CCC1
 | ≤ 4.74 mL/min/kg | 27.4 mL/min/kg |  |  |  | O=C(CCCCCCC(=O)Nc1ccccc1)NO
 |  |  |  |  | 24.8 µg/mL (≈ 121 µM) | Cc1cc(C(=O)O)c2ccc(F)cc2n1
 | ≤ 4.74 mL/min/kg | ≤ 10.7 mL/min/kg |  |  | 31.4 µg/mL (≈ 145 µM) | CN(CCC#N)Cc1cc(C#N)ccc1F
 | 48.8 mL/min/kg | 95.1 mL/min/kg | 0.0779 | 0.146 |  | O=C1NCCSc2c1sc1ccc(O)cc21
6.94 | 19.7 mL/min/kg | 540 mL/min/kg |  |  | 49.7 µg/mL (≈ 146 µM) | Cc1nccn1-c1cncc(N2CCN(CC3CCCC3)C(=O)C2)n1
0.842 | ≤ 4.74 mL/min/kg | ≤ 10.7 mL/min/kg |  |  | 52.3 µg/mL (≈ 225 µM) | Cc1ccc(CNC(=O)c2cccs2)cn1
2.21 | 1340 mL/min/kg | 4200 mL/min/kg |  |  |  | COc1ccc(NC(C)=O)cc1NC(=O)CN(Cc1ccccc1)C(C)C

MDR1-MDCK efflux ratio | intrinsic clearance, human liver microsomes | intrinsic clearance, rat liver microsomes | fraction unbound, human plasma | fraction unbound, rat plasma | aqueous solubility | SMILES
6.3 | ≤ 4.74 mL/min/kg | 446 mL/min/kg |  |  | 43.9 µg/mL (≈ 140 µM) | Cn1ccnc1CN1CCN(Cc2ccc(F)cc2C#N)CC1
4.22 | ≤ 4.74 mL/min/kg | 161 mL/min/kg |  |  |  | Cc1ccc(=O)n(CC2(O)CCN(Cc3cccs3)CC2)n1
2.09 | 15.5 mL/min/kg | 114 mL/min/kg |  |  | 34.5 µg/mL (≈ 98.9 µM) | OCc1ccc(Cn2cc(-c3cc(F)ccc3-n3cccn3)nn2)cc1
2.39 | ≤ 4.74 mL/min/kg | ≤ 10.7 mL/min/kg |  |  | 42.4 µg/mL (≈ 150 µM) | O=C(O)c1ccc(=O)n(CCc2c[nH]c3ccccc23)c1
 | 66.3 mL/min/kg | 294 mL/min/kg |  |  | 5.16 µg/mL (≈ 13.4 µM) | Cc1cccc(COc2cccc(/C=C3\C(=O)NN(c4ccccc4)C3=O)c2)c1
 |  |  |  |  | 3.73 µg/mL (≈ 10.8 µM) | Clc1ccccc1C(c1ccccc1)(c1ccccc1)n1ccnc1
0.648 | ≤ 4.74 mL/min/kg | ≤ 10.7 mL/min/kg |  |  |  | OCc1cnnn1-c1cncc(Cl)n1
1.04 | ≤ 4.74 mL/min/kg | 30 mL/min/kg |  |  | 70.8 µg/mL (≈ 239 µM) | O=C(NCc1ccc(F)cc1)c1ccc(-n2ccnc2)nc1
0.471 | 276 mL/min/kg | 1260 mL/min/kg |  |  |  | CCCc1ccc(C(=O)CSc2nncs2)cc1
0.738 | ≤ 4.74 mL/min/kg | 15.2 mL/min/kg |  |  | 34.1 µg/mL (≈ 154 µM) | CNC(=O)CN(C)c1cccc(F)c1C#N
2.78 | ≤ 4.74 mL/min/kg | 115 mL/min/kg |  |  | 2.1 µg/mL (≈ 6.06 µM) | Nc1nc(N)c2nc(-c3cccc(O)c3)c(-c3cccc(O)c3)nc2n1
0.73 | 83.8 mL/min/kg | 5820 mL/min/kg |  |  |  | O=C(CSc1ccc2c(c1)OCCO2)NC1CCCC1
4.88 |  |  |  |  | 0.28 µg/mL (≈ 0.704 µM) | Cc1ccc(-c2nc3ccccc3[nH]2)cc1NS(=O)(=O)c1ccc(Cl)cc1
 | ≤ 4.74 mL/min/kg | ≤ 10.7 mL/min/kg |  |  | 61.4 µg/mL (≈ 274 µM) | Cc1nc(C2CCN(CC(N)=O)CC2)no1
0.75 | ≤ 4.74 mL/min/kg | 28.6 mL/min/kg |  |  |  | Cc1cc(Br)ccc1CN(C)C(=O)CO
0.562 | 33.9 mL/min/kg | 887 mL/min/kg |  |  |  | CN1CCN(S(=O)(=O)Cc2ccc(Cl)c(Cl)c2)CC1
2.49 | ≤ 4.74 mL/min/kg | 198 mL/min/kg |  |  |  | Cc1cc(NCC2(c3ccncc3)CC2)ncn1
133 | 15 mL/min/kg | 14.7 mL/min/kg |  |  | 36.3 µg/mL (≈ 65.7 µM) | CCc1nc(C(N)=O)c(Nc2ccc(N3CCC(N4CCN(C)CC4)CC3)c(OC)c2)nc1NC1CCOCC1
8.41 | 6.78 mL/min/kg | 40.2 mL/min/kg |  |  | 50.5 µg/mL (≈ 148 µM) | Cc1cc(C(=O)Nc2c(C)nn(C(C)C)c2C)c2ccc(F)cc2n1
 | ≤ 4.74 mL/min/kg | 15.2 mL/min/kg | 0.0933 | 0.0425 |  | CCCNC(=O)NS(=O)(=O)c1ccc(Cl)cc1
 |  |  |  |  | 0.16 µg/mL (≈ 0.435 µM) | O=C1CCCc2nc(Nc3nc(-c4ccccc4)c4ccccc4n3)ncc21

SMILES | MDR1-MDCK efflux ratio | intrinsic clearance, human liver microsomes | intrinsic clearance, rat liver microsomes | fraction unbound, human plasma | fraction unbound, rat plasma | aqueous solubility
CCN(CC)C(=O)c1ccc(C2=CC3(CCNCC3)Oc3cccc(O)c32)cc1 | 20.9 | 9 mL/min/kg | 65.8 mL/min/kg |  |  | 
COc1cc(CCNC2CCC3(CC2)OCCO3)ccc1F | 1 | 60.6 mL/min/kg | 2240 mL/min/kg |  |  | 

From the Biogen ADME set (Fang et al. 2023)
